For nine molecules, AC50 results are on record in ChEMBL document CHEMBL5291721, “A preclinical secondary pharmacology resource illuminates target-adverse drug reaction associations of marketed drugs” (Nat Commun, 2023).

Among the targets are Mu-type opioid receptor (Homo sapiens, UniProt P35372); D(1A) dopamine receptor (Homo sapiens, UniProt P21728); Histamine H3 receptor (Homo sapiens, UniProt Q9Y5N1); D(3) dopamine receptor (Homo sapiens, UniProt P35462).
Another test has as its target T1, Adenosine receptor A3 (Homo sapiens, UniProt P0DMS8).
T1 sequence (P0DMS8 whole entry): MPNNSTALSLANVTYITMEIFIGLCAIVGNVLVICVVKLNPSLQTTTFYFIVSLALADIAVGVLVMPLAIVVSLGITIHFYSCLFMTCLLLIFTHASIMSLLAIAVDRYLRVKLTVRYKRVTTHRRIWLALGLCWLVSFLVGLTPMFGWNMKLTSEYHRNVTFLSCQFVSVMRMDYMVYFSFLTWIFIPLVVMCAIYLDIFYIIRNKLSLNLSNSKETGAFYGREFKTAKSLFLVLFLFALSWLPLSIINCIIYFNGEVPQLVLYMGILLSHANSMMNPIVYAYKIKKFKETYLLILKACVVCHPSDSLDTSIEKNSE

Test [1] concerns the target Sodium-dependent dopamine transporter (Homo sapiens, UniProt Q01959).
Test [2] addresses 3',5'-cyclic-AMP phosphodiesterase 4A (Homo sapiens, UniProt P27815). The format is functional.
The target in test [3] is T2, Alpha-2A adrenergic receptor (Homo sapiens, UniProt P08913).
T2 sequence (P08913 whole entry): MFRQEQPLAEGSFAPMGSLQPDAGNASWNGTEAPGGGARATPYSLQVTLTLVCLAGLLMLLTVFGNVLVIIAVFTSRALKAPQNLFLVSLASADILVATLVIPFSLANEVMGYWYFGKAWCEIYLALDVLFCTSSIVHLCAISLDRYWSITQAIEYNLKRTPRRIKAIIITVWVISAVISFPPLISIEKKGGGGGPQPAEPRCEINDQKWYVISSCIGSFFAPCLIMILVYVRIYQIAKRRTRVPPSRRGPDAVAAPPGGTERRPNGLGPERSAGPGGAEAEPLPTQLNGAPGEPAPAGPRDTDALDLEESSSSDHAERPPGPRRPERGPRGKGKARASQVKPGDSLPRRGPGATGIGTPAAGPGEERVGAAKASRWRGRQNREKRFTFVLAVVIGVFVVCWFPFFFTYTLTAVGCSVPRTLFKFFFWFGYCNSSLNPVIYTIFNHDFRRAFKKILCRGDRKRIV

For test [4], the target named is Voltage-gated inwardly rectifying potassium channel KCNH2 (Homo sapiens, UniProt Q12809). The format is functional. The settings on record: read-out: AC50.
In another test the target is T3, Thromboxane A2 receptor (Homo sapiens, UniProt P21731).
T3 sequence (P21731 whole entry): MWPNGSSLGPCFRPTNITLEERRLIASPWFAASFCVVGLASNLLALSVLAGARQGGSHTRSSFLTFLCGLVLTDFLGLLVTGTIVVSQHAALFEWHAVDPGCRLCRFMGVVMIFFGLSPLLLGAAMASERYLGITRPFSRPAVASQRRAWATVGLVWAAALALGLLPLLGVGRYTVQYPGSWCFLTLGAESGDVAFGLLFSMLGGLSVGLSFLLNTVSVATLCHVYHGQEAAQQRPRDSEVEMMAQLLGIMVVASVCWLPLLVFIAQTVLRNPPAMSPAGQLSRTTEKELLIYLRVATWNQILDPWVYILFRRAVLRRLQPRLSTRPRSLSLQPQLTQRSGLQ
The format is functional, cell-based.

A further test deals with T4, Estrogen receptor (Homo sapiens, UniProt P03372).
T4 sequence (P03372 whole entry): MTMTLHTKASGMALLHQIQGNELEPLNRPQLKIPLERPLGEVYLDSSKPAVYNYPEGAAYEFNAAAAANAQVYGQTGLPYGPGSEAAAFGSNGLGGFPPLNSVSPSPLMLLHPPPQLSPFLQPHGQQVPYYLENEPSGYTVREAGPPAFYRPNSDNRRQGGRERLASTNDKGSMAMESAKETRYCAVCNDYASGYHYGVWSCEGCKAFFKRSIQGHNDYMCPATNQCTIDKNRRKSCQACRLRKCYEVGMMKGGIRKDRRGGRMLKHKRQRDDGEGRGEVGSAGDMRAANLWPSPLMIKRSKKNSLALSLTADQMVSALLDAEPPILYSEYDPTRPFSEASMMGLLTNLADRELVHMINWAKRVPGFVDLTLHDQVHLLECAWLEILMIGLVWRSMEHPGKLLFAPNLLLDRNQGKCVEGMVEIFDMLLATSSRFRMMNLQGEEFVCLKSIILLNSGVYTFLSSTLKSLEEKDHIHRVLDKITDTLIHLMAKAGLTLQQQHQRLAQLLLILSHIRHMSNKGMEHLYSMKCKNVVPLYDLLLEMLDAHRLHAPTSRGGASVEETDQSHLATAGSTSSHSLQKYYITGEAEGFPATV

In test [5] the target is T5, 5-hydroxytryptamine receptor 1A (Homo sapiens, UniProt P08908).
T5 sequence (P08908 whole entry): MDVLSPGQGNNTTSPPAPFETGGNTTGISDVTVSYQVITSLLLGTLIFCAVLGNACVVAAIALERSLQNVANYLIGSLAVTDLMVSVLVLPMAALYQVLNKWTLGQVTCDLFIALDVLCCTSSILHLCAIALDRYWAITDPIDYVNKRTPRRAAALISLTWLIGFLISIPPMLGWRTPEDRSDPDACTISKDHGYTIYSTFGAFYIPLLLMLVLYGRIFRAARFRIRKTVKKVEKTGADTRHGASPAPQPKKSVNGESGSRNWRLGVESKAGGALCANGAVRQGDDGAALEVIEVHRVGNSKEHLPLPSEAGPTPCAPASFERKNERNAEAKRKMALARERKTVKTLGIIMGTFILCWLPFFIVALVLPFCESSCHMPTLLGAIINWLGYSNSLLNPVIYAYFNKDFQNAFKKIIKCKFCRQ

For another test, the target named is Prothrombin (Homo sapiens, UniProt P00734). The format is functional.
Test [6] deals with Sodium-dependent serotonin transporter (Homo sapiens, UniProt P31645).
Test [7] concerns the target Prostaglandin G/H synthase 1 (Homo sapiens, UniProt P23219). The format is functional.
Further: assay procedure not described here.

Sequence of D(1A) dopamine receptor (P21728 whole entry): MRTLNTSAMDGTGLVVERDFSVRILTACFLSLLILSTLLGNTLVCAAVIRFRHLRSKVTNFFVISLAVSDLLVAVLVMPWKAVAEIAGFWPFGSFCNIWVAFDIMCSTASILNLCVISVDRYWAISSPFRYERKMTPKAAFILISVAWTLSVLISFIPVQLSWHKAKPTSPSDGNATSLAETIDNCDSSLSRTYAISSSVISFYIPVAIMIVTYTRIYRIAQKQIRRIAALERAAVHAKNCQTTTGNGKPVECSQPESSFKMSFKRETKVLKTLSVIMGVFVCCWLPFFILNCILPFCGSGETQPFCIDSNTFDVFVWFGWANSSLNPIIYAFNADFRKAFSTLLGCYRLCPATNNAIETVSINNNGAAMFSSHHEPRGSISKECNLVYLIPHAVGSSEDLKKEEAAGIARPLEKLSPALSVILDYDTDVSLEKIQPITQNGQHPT
Sequence of Mu-type opioid receptor (P35372 whole entry): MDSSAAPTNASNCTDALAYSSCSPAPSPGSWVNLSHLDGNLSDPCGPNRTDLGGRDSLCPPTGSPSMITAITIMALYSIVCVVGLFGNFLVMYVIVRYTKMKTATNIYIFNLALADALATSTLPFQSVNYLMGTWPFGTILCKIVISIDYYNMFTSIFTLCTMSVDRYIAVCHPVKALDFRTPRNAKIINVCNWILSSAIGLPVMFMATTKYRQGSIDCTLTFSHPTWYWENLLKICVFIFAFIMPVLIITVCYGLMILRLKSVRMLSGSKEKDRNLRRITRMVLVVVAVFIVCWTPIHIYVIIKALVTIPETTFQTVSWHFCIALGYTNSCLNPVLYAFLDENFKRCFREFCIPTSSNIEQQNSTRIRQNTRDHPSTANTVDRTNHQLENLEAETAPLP
Sequence of Sodium-dependent dopamine transporter (Q01959 whole entry): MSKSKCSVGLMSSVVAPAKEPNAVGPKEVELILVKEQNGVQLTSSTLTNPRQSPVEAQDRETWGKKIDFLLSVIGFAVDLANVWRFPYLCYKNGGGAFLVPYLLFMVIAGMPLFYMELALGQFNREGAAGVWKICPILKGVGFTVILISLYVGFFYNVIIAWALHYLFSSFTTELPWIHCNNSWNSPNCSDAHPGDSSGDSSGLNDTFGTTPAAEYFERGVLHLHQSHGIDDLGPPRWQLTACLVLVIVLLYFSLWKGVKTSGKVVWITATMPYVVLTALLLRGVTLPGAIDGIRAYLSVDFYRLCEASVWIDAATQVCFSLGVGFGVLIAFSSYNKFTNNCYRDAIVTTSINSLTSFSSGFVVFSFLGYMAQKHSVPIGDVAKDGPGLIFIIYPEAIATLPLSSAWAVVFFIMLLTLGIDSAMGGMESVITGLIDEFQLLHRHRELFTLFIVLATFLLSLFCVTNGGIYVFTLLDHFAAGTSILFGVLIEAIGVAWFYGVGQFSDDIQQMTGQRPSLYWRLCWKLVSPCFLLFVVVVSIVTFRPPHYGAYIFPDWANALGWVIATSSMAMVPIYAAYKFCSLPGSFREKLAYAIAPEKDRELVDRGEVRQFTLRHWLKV
Sequence of Voltage-gated inwardly rectifying potassium channel KCNH2 (Q12809 whole entry): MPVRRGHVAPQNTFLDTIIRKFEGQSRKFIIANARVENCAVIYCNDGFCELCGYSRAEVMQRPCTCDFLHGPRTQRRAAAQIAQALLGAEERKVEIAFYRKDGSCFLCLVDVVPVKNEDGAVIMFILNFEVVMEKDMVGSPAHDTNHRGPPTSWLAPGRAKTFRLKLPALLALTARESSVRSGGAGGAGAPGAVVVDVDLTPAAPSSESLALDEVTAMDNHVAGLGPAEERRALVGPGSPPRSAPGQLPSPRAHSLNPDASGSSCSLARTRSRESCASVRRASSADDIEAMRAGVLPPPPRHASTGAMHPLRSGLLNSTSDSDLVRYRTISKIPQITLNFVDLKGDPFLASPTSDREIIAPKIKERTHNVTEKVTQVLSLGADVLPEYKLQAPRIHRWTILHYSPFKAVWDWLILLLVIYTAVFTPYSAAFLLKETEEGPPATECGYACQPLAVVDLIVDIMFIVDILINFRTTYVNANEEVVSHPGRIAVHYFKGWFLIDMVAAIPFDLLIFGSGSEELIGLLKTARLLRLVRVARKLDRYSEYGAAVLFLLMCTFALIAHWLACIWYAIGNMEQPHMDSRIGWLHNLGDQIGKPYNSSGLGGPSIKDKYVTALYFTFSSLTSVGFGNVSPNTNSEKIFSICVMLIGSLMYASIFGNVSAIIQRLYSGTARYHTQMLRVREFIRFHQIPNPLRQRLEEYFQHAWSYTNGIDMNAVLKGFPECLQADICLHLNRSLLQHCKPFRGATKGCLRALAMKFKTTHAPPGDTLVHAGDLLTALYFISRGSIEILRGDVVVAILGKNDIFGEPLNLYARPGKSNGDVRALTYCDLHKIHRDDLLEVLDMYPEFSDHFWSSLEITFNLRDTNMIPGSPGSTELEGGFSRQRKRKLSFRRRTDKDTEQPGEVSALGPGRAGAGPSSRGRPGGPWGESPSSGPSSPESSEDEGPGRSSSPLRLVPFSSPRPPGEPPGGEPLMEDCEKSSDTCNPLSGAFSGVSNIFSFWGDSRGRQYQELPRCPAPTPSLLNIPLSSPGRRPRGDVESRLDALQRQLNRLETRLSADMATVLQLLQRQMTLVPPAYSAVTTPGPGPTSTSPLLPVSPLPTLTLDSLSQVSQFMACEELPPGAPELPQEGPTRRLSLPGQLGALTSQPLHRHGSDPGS
Sequence of Sodium-dependent serotonin transporter (P31645 whole entry): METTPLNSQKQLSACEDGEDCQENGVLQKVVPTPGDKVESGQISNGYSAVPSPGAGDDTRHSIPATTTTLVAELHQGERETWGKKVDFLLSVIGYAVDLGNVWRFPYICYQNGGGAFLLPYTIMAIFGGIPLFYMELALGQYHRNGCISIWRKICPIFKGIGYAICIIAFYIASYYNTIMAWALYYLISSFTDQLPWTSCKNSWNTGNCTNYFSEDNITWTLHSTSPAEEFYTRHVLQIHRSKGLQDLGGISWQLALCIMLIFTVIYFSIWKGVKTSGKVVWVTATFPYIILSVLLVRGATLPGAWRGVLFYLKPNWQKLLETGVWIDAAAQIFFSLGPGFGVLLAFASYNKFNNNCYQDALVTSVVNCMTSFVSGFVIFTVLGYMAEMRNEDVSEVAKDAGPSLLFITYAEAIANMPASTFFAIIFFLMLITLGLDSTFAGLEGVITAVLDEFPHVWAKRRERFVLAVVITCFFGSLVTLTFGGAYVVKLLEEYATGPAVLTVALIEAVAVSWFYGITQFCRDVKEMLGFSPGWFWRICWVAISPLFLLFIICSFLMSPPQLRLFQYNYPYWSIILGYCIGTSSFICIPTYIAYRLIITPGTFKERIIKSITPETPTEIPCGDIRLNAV
Sequence of D(3) dopamine receptor (P35462 whole entry): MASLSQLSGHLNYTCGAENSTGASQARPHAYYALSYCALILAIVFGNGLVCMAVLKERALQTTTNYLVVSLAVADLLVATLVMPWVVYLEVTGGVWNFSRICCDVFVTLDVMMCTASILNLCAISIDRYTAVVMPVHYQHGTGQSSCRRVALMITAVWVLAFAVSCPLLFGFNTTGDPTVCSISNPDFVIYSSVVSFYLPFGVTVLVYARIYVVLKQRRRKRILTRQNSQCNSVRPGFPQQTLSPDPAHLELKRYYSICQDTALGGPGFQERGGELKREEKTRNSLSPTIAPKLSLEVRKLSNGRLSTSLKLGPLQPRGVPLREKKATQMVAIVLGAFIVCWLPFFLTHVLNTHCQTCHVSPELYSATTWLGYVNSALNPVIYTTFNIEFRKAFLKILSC
Sequence of 3',5'-cyclic-AMP phosphodiesterase 4A (P27815 whole entry): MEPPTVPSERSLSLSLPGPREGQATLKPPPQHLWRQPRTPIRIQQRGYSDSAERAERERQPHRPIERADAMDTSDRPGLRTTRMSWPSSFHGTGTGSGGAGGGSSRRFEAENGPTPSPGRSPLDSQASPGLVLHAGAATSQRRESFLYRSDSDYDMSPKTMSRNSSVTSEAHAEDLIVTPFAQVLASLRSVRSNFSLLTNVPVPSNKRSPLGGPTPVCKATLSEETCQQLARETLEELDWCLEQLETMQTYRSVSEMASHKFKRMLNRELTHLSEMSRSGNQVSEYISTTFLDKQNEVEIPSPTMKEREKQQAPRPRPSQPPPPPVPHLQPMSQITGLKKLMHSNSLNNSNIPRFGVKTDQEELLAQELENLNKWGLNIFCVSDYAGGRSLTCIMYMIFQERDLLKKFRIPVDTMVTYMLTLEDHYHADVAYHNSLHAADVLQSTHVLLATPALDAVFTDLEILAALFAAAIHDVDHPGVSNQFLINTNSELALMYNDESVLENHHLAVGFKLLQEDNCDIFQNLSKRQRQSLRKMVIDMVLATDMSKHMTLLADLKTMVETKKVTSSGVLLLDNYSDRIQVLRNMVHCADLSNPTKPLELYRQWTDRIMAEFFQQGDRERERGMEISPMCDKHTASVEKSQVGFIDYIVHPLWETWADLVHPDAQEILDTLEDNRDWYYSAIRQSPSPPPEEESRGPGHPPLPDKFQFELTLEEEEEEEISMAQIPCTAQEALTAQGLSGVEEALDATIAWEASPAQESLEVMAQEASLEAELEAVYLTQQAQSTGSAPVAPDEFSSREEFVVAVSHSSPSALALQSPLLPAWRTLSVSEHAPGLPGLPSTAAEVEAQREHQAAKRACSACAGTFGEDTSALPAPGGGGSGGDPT
Sequence of Histamine H3 receptor (Q9Y5N1 whole entry): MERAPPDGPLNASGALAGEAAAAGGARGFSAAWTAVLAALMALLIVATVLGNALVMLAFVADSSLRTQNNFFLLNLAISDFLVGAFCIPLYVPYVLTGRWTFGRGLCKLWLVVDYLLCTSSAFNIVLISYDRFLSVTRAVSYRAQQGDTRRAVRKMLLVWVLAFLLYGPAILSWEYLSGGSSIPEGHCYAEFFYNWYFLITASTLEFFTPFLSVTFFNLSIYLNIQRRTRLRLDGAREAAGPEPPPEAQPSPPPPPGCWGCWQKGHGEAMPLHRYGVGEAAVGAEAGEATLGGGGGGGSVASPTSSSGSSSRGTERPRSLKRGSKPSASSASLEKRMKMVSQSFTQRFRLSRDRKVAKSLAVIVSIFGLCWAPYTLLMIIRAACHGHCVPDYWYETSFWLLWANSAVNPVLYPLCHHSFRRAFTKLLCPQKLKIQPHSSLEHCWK

In the case of `O=C(Nc1ccccc1)OCC(CN1CCCCC1)OC(=O)Nc1ccccc1` (stereo unspecified) [DIPERODON], the AC50 is over 30 µM on Adenosine receptor A3; over 30 µM in [1]; 11.2 µM at Mu-type opioid receptor; over 30 µM in test [2]; over 30 µM in test [3]; 5.4 µM in test [4]. Moreover, the concentration at half-maximal activity (AC50) (at Thromboxane A2 receptor; on D(1A) dopamine receptor; at Histamine H3 receptor; at Estrogen receptor; in [5]; on Prothrombin) was over 30 µM each time. Besides, the results for the AC50 (in test [6]; on D(3) dopamine receptor; in test [7]) were over 30 µM, 23.5 µM and over 30 µM, respectively.

Turning to `O=C(O)CCCN1CCC(O[C@@H](c2ccc(Cl)cc2)c2ccccn2)CC1` [BEPOTASTINE], the half-maximal activity concentration (AC50) (at Adenosine receptor A3; in [1]; at Mu-type opioid receptor; in test [2]; in test [3]; in [4]) was over 30 µM in each case. Further, the AC50 (on Thromboxane A2 receptor; on D(1A) dopamine receptor; at Histamine H3 receptor; at Estrogen receptor; in [5]; at Prothrombin) was over 30 µM in each case. Also, the concentration at half-maximal activity (AC50) (in test [6]; at D(3) dopamine receptor; in [7]) was over 30 µM each time.

Consider `CCC(Cc1c(I)cc(I)c(N)c1I)C(=O)O` (stereo unspecified) [IOPANOIC ACID], for which the AC50 is over 30 µM on Adenosine receptor A3; over 30 µM in [1]; over 30 µM on Mu-type opioid receptor; 12.2 µM in test [2]; over 30 µM in test [3]; over 30 µM in test [4]. The half-maximal activity concentration (AC50) at Thromboxane A2 receptor was 14.4 µM; at D(1A) dopamine receptor it was over 30 µM; on Histamine H3 receptor, over 30 µM; on Estrogen receptor, over 30 µM; in test [5], over 30 µM; at Prothrombin it was over 30 µM. Besides, the concentration at half-maximal activity (AC50) (in test [6]; at D(3) dopamine receptor; in [7]) was over 30 µM throughout.

Take `O=C1NCC2(CCN(CCc3ccccc3)CC2)O1` [FENSPIRIDE]: the AC50 is over 30 µM at Adenosine receptor A3; over 30 µM in test [1]; over 30 µM at Mu-type opioid receptor; over 30 µM in [2]; 8.2 µM in test [3]; over 30 µM in [4]. In addition, the AC50 at Thromboxane A2 receptor was over 30 µM; at D(1A) dopamine receptor it was 20.8 µM; at Histamine H3 receptor, over 30 µM; at Estrogen receptor, over 30 µM; in test [5] it was over 30 µM; at Prothrombin, over 30 µM. Besides, the AC50 (in test [6]; at D(3) dopamine receptor; in test [7]) was over 30 µM in each case.

For the molecule `CC/C=C\C/C=C\C/C=C\C/C=C\C/C=C\CCCC(=O)O` [ICOSAPENT], the AC50 on Adenosine receptor A3 is 25.3 µM; in test [1], over 30 µM; at Mu-type opioid receptor it was over 30 µM; in test [2] it was over 30 µM; in test [3], over 30 µM; in test [4], over 30 µM. For the same molecule, the concentration at half-maximal activity (AC50) (on Thromboxane A2 receptor; on D(1A) dopamine receptor; at Histamine H3 receptor; on Estrogen receptor; in test [5]; on Prothrombin) was over 30 µM throughout. The AC50 in test [6] is over 30 µM; on D(3) dopamine receptor, over 30 µM; in test [7], 9.84 µM.

As for `O=[N+]([O-])c1cncn1CCN1CCOCC1` [NIMORAZOLE], the AC50 (at Adenosine receptor A3; in test [1]; on Mu-type opioid receptor; in test [2]; in test [3]; at Thromboxane A2 receptor) was over 30 µM each time. Further, the AC50 (on D(1A) dopamine receptor; on Histamine H3 receptor; at Estrogen receptor; in [5]; on Prothrombin; in test [6]) was over 30 µM throughout. The AC50 (at D(3) dopamine receptor; in [7]) was over 30 µM throughout.

As for `CN1CCC2=C(C1)c1ccccc1Cc1ccccc12` [SETIPTILINE], the AC50 on Adenosine receptor A3 was over 30 µM; in test [1], 24.1 µM; at Mu-type opioid receptor, 12.8 µM; in test [2], over 30 µM; in test [3], 0.0996 µM; in test [4], 13 µM. Besides, the AC50 on Thromboxane A2 receptor is over 30 µM; on D(1A) dopamine receptor, 0.0882 µM; at Histamine H3 receptor, over 30 µM; at Estrogen receptor, over 30 µM; in [5], 0.154 µM; on Prothrombin, over 30 µM. Besides, the AC50 was 8.15 µM in test [6], 0.543 µM on D(3) dopamine receptor and over 30 µM in test [7].

For `COc1cc2c(cc1OC)[C@H]1C[C@@H](OC(=O)[C@@H](N)C(C)C)[C@H](CC(C)C)CN1CC2` [VALBENAZINE], the AC50 is over 30 µM on Adenosine receptor A3; over 30 µM in test [1]; 21.6 µM at Mu-type opioid receptor; over 30 µM in [2]; over 30 µM in test [3]; 13.9 µM at Thromboxane A2 receptor. For the same molecule, the AC50 (at D(1A) dopamine receptor; at Histamine H3 receptor; at Estrogen receptor; at Prothrombin; in [6]; at D(3) dopamine receptor) was over 30 µM in each case. This molecule also came in with a half-maximal activity concentration (AC50) in test [7] of 24.1 µM.

Take `O=C(c1ccc(F)c(F)c1Nc1ccc(I)cc1F)N1CC(O)([C@@H]2CCCCN2)C1` [COBIMETINIB]: the AC50 at Adenosine receptor A3 was over 30 µM; in [1], 7.3 µM; on Mu-type opioid receptor, 0.271 µM; in test [2], over 30 µM; in test [3], over 30 µM; on Thromboxane A2 receptor it was over 3 µM. Also, the concentration at half-maximal activity (AC50) was 24.1 µM at D(1A) dopamine receptor; over 30 µM on Histamine H3 receptor; over 30 µM at Estrogen receptor; over 30 µM in test [5]; over 30 µM at Prothrombin; 7.82 µM in test [6]. For the same molecule, the figures for the half-maximal activity concentration (AC50) (at D(3) dopamine receptor; in test [7]) were 24.1 µM and over 30 µM, respectively.

In general, AC50 refers to the concentration at which the activity in the assay is half-maximal.
